Measurements: US20240059685A1, “PIEZO1 AGONISTS FOR THE PROMOTION OF BONE FORMATION” (BIOVENTURES, LLC, priority 2019, published 2024)
Entries after “also recorded” stand apart in the source; their conditions may differ.

Key:
Piezo1 = target: T1, Piezo1 (Mus musculus, UniProt E2JF22); experiment: qPCR gene expression of Wnt1, Ptgs2 and Tnfrsf11b in MLO-Y4 cells; type: cell-based, murine; conditions: 10 μM, 2 hours
T1 construct: To identify Piezo1 stimulators, we treated MLO-Y4 cells with compounds; endogenous in cells; host or cells: MLO-Y4 (murine osteocyte-like cell line); control sh-Luc cells, with sh-Piezo1 knock-down cells as the specificity control
Description: Cell cultures. MLO-Y4 cells were cultured in α-MEM supplemented with 5% FBS, 5% BCS, and 1% penicillin/streptomycin/glutamine. Fifteen dynes/cm^2 oscillatory fluid shear stress was applied on MLO-Y4 cells at 1 Hz for 2 hours using an IBDI pump system (IBIDI, German). For Yoda1 treatment, cells were cultured in the presence of 10 μM Yoda1 (Sigma, St. Louis, MO) or DMSO for 2 hours. Immediately after the treatments, we isolated RNA from cells using RNeasy mini kit (Qiagen, German) for qPCR or RNA-seq analysis. To silence Piezo1, we generated Piezo1 shRNA expression plasmid using the following oligonucleotides in the pLKO.1-TRC cloning vector (Addgene Plasmid #10878, a gift from David Root): forward oligo: 5′-CCGGTC-[…]-3′ (SEQ ID NO: 1); reverse oligo: 5′-[…]-CGA-3′ (SEQ ID NO: 2) (Zhang et al., 2017). Yap1 shRNA (TRCN0000238432) and Taz shRNA (TRCN0000095951) were purchased from Sigma (St. Louis, MO). A shRNA against firefly luciferase was used as a control (Sigma, St. Louis, MO). For virus production, HEK293T cells were cultured in a 6-well culture plate and co-transfected with a total 3 μg of lentiviral shRNA vector, pMD2G (Addgene plasmid #12259, a gift from Didier Trono), and psPAX2 (Addgene plasmid #12260, a gift from Didier Trono) at the ratio of 2:0.9:0.4 using TransIT-LT1 transfection reagent (Mirus, Madison, WI). Culture media was changed 12 hours after transfection and viral supernatants were collected 48 hours after media change. Viral supernatants were filtered through a 0.45 μm filter and used immediately to transduce cells cultured in a 10 cm dish. Cells were then subjected to selection with G418 (100 μg/ml) or puromycin (25 μg/ml) for 5 days before treatment. To overexpress Piezo1 in MLO-Y4 cells, we transfected mPiezo1-IRES-eGFP (Addgene plasmid #80925, a gift from Ardem Patapoutian) into MLO-Y4 cells using TransIT-LT1 transfection reagent (Mirus, Madison, WI) and then treated these cells with 15 dynes/cm^2 oscillatory fluid shear stress at 1 Hz for 2 hours. Plasmids for expression of Cas9 and sgRNAs for knocking out Piezo1 in UAMS-32 cells were prepared by inserting oligonucleotides encoding the desired sgRNA sequence into the pX458 vector using the protocol recommended by the Zhang laboratory (Cong et al., 2013). Plasmids expressing Cas9 and Piezo1 sgRNAs were transfected into UAMS-32 cells using TransIT-LT1 transfection reagent (Mirus, Madison, WI). Cells were sorted into 96-well plates for single cell cloning 48 hours after transfection. Single cell colonies were then screened for homozygous deletion using the following primers: Forward: 5′-[…]-3′ (SEQ ID NO: 5), Reverse: 5′-[…]-3′ (SEQ ID NO: 6). All homozygous mutant cell colonies were then pooled together for further analysis. Cas9 transfected cells were used as a control. All in vitro cell culture experiments were performed three times with three technical replicates.
Quantitative PCR. Organs and whole bones were harvested from animals, removed of soft tissues, and stored immediately in liquid nitrogen. We prepared osteocyte-enriched bone by removing the ends of femurs and tibias and then flushing the bone marrow with PBS. We then scraped the bone surface with a scalpel and froze them in liquid nitrogen for later RNA isolation, or decalcified them for genomic DNA isolation. We isolated total RNA using TRIzol (Life technologies, NY), according to the manufacturer's instructions and prepared cDNA using High Capacity first strand cDNA synthesis kit (Life Technologies). We performed quantitative RT-PCR using the following Taqman assays from Applied Biosystems: Piezo1 (Mm01241549_m1); Piezo2 (Mm01265861_m1); Ptgs2 (Mm00478374_m1); Cyr61 (Mm00487498_m1); Wnt1 (Mm01300-555_g1); Yap1 (Mm011432-63_m1); Taz (Mm01289583_m1); Tnfsf11 Mm00441906_m1; Tnfrsf11b (Mm00435452_m1); Sost (Mm00470479_m1); and ribosomal protein S2 (Mrps2) (Mm00475529_m1). We calculated relative mRNA amounts using the ΔCt method (Livak and Schmittgen, 2001). […]

calvaria cells [1] = experiment: Oxygen consumption rate and ATP production (seahorse) in wildtype and Piezo1 knockout calvaria cells; type: cell-based; conditions: 10 μM, 1 hour; for changes in mitochondrial oxygen consumption rate in cells lacking Piezo1 / increases in ATP production in Piezo1 knockout cells: Piezo1 knockout calvaria cells
Description: To determine whether activation of Piezo1 by Yoda1 or YW-3-170 is associated with increased mitochondrial function, we measured oxygen consumption rate and ATP production in calvaria cells treated by Yoda1 or YW-3-170. Wildtype and Piezo1 knockout calvarial cells were cultured in α-MEM medium supplemented with 10% fetal bovine serum and treated with 10 μM Yoda1 or YW-3-170 for 1 hour. Oxygen consumption rate and ATP production were measured using seahorse. […] Importantly, these increases were diminished in Piezo1 knockout cells.

calvaria cells [2] = experiment: Mitochondria staining (MitoBright dye) in wildtype and Piezo1 knockout calvaria cells; type: cell-based; conditions: 10 μM, 24 hours; for increases in mitochondria staining in Piezo1 knockout cells: Piezo1 knockout calvaria cells; for mitochondria staining: wildtype calvaria cells
Description: Next, we determined whether Yoda1 or YW-3-170 increase mitochondria number in primary calvaria cells. Wildtype and Piezo1 knockout calvarial cells were treated with 10 μM Yoda1 or YW-3-170 for 24 hours and then were stained for Mitochondria using MitoBright dye. […] However, these increases were blunted in Piezo1 knockout cells. […] The fluorescence intensity was quantified using the ImageJ software.

MLO-Y4 cells = experiment: ATP production in MLO-Y4 cells; type: cell-based, murine; conditions: 30 minutes, different doses
[3] = Yap1/Taz knock-down MLO-Y4 cells

T1 sequence (E2JF22 whole entry): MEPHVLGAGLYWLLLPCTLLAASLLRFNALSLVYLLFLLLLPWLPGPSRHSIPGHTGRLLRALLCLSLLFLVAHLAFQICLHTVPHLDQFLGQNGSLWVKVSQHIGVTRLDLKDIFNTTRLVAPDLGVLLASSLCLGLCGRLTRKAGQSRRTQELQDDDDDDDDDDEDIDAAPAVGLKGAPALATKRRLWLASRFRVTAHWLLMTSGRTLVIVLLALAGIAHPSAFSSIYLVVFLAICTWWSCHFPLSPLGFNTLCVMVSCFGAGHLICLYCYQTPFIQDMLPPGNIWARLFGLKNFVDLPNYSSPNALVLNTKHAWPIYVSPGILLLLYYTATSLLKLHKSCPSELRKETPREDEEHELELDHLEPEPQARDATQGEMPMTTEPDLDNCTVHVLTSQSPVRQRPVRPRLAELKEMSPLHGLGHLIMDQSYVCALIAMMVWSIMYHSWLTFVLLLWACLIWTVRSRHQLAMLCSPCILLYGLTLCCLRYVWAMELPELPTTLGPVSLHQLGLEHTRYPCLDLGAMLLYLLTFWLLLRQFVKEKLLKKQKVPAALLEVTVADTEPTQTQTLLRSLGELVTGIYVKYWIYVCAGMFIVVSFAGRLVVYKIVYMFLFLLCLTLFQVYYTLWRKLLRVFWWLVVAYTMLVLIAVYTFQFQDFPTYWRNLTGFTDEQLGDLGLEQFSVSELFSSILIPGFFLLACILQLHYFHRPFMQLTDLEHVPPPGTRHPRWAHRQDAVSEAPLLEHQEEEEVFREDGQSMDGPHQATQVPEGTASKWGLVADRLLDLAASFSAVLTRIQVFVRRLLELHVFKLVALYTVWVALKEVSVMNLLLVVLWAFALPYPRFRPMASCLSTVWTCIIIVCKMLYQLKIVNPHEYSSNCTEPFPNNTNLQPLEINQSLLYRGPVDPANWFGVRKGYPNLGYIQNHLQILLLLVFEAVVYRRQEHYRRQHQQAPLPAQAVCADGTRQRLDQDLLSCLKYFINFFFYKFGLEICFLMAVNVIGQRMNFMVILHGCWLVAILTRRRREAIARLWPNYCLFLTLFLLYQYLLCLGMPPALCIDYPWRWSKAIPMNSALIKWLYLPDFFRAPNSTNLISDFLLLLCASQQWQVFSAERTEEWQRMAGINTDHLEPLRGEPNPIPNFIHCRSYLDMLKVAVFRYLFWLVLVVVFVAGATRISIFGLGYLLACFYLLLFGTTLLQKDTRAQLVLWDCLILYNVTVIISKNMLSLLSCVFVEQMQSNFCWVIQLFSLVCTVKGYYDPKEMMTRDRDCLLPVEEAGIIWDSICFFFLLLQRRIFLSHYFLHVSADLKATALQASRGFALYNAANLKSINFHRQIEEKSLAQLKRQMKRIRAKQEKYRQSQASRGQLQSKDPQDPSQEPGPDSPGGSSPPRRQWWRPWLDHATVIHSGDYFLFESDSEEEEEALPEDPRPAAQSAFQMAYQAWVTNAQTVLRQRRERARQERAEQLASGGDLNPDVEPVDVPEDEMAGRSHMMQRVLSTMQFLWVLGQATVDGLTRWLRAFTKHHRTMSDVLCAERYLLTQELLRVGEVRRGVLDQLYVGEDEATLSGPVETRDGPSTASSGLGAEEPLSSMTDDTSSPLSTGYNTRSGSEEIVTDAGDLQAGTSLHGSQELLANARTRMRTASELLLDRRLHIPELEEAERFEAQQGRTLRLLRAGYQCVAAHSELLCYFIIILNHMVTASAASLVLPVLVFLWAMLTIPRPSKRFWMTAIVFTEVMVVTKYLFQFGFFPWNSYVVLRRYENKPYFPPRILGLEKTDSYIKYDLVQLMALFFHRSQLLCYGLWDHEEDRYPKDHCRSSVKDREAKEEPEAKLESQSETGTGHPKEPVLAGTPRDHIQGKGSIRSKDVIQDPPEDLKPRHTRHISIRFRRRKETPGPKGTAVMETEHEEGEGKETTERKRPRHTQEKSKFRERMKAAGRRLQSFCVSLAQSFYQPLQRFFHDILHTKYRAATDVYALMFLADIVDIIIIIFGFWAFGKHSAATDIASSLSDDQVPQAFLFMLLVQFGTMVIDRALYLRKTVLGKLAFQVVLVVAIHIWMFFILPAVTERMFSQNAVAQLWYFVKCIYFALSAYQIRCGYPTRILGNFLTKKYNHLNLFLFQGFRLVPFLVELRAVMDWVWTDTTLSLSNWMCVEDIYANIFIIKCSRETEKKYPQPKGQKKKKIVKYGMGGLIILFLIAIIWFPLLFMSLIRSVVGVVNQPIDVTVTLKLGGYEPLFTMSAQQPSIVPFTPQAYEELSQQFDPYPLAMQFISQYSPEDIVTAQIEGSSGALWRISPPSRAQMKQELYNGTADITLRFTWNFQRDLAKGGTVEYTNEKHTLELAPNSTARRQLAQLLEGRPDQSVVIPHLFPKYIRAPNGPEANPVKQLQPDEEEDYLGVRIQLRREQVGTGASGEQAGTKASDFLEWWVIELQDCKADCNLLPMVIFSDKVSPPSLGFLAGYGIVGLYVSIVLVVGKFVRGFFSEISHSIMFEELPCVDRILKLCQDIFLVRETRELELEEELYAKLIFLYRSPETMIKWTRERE

| Structure (SMILES) | Ptgs2 expression compared with vehicle (Piezo1; MLO-Y4 cells) | Tnfrsf11b expression compared with vehicle (Piezo1; MLO-Y4 cells) | Wnt1 expression compared with vehicle (Piezo1; MLO-Y4 cells) | changes in mitochondrial oxygen consumption rate in cells lacking Piezo1 (calvaria cells [1]) | increases in ATP production in Piezo1 knockout cells (calvaria cells [1]) | ATP production (calvaria cells [1]; wildtype calvaria cells) | mitochondrial oxygen consumption rate at basal level as well as stimulated level (calvaria cells [1]; wildtype calvaria cells) | ATP production (MLO-Y4 cells) | also measured |
| --- | --- | --- | --- | --- | --- | --- | --- | --- | --- |
| Fc1ccc(Cl)c(CSc2nnc(-c3cnccn3)s2)c1Cl [YW-3-170] | higher Ptgs2 expression | higher Tnfrsf11b expression | higher Wnt1 expression | significantly blunted | diminished | increase | increased | increased ATP production in MLO-Y4 cells in a dose-dependent manner | Ptgs2 expression compared with positive control Yoda1 (Piezo1; MLO-Y4 cells): higher Ptgs2 expression than the positive control; Wnt1 expression compared with positive control Yoda1 (Piezo1; MLO-Y4 cells): higher Wnt1 expression than the positive control; ATP production compared with Yoda1 (calvaria cells [1]; wildtype calvaria cells): more ATP production than Yoda1; mitochondrial oxygen consumption rate at basal level as well as stimulated level (calvaria cells [1]; wildtype calvaria cells, listed as 170): increase; increases in mitochondria staining in Piezo1 knockout cells (calvaria cells [2]; listed as 170): requires Piezo1; increases in mitochondria staining in Piezo1 knockout cells (calvaria cells [2]; listed as compound I): blunted; stimulation of mitochondria staining compared with Yoda1 (calvaria cells [2]; calvaria cells): more potent stimulation of mitochondria staining than Yoda1; mitochondria staining (calvaria cells [2]; listed as 170): increase; mitochondria staining (calvaria cells [2]; listed as compound I): increased |
| Clc1cccc(Cl)c1CSc1nnc(-c2cnccn2)s1 [Yoda1] | stimulated expression; also recorded: higher Ptgs2 expression | stimulated expression; also recorded: higher Tnfrsf11b expression | stimulated expression; also recorded: higher Wnt1 expression | significantly blunted | diminished | stimulated; also recorded: increase | increase | increased ATP production in MLO-Y4 cells in a dose-dependent manner | changes in gene expression (Ptgs2, Wnt1, Tnfrsf11b) after silencing of Piezo1 (Piezo1; Piezo1 knock-down MLO-Y4 cells): completely prevented; increase of Ptgs2 after silencing Yap1 and Taz (Piezo1; [3]): significantly blunted; increase of Tnfrsf11b after silencing Yap1 and Taz (Piezo1; [3]): significantly blunted; increase of Wnt1 after silencing Yap1 and Taz (Piezo1; [3]): significantly blunted; increases in mitochondria staining in Piezo1 knockout cells (calvaria cells [2]): blunted; also recorded: requires Piezo1; mitochondria staining (calvaria cells [2]): increase |
